Data reported in BindingDB's records for patent US20240409538 (Impact Therapeutics (Shanghai), 2024).

Molecular target: Ubiquitin carboxyl-terminal hydrolase 1/WD repeat-containing protein 48 (Homo sapiens, UniProt O94782)
Test: Not found

Chain of Ubiquitin carboxyl-terminal hydrolase 1/WD repeat-containing protein 48 (O94782 whole entry): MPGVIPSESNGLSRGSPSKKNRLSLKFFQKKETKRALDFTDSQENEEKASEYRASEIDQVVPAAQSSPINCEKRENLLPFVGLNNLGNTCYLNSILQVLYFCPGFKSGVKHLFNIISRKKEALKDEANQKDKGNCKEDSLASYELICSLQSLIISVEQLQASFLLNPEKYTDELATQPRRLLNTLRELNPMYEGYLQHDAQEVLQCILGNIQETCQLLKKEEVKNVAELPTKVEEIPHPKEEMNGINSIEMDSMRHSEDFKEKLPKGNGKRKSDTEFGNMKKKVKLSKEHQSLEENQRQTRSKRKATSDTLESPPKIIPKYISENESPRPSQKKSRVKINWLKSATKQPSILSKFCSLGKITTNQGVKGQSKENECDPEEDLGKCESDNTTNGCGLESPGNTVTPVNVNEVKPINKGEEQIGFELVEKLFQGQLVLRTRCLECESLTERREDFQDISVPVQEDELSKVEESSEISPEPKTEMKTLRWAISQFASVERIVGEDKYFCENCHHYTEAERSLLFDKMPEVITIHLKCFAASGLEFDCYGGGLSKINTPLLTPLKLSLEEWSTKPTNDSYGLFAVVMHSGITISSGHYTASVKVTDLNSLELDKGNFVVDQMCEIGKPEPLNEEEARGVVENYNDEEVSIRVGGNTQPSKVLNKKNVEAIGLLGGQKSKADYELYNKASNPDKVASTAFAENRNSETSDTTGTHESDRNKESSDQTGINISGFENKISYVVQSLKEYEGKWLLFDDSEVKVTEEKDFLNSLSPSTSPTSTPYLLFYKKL
Chain of Ubiquitin carboxyl-terminal hydrolase 1/WD repeat-containing protein 48 (Q8TAF3 whole entry, further chain): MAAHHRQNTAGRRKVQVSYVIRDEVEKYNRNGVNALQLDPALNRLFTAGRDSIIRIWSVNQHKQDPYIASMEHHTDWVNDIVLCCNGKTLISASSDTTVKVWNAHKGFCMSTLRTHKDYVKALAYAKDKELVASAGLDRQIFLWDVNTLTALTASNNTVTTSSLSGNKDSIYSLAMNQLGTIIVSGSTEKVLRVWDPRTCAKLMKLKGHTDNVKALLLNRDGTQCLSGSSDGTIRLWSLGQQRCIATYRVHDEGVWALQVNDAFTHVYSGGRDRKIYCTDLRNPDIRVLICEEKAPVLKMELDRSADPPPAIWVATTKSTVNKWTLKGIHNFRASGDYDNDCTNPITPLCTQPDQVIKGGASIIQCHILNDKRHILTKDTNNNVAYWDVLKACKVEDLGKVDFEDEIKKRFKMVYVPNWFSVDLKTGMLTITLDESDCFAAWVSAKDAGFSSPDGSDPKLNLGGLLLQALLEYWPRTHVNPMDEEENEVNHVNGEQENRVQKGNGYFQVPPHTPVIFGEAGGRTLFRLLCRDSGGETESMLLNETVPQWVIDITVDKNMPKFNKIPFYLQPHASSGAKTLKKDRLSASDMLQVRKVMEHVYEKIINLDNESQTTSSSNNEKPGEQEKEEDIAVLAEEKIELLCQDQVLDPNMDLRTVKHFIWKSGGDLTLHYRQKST

IC50: 0.0775 µM
SMILES: COc1ncnc(OC)c1-c1nc2c(Cc3ccc(-c4nc(C(F)(F)F)cn4C)cc3)cccn2n1 [US20240409538, Example 27]
